Patent publication US20090156477A1, “Compositions and Methods for Regulating Inflammatory Responses” (Massachusetts Institute of Technology, priority 2005, published 2009)
Entries after “also recorded” stand apart in the source; their conditions may differ.

Tests used:
Caco-2 cells [1] = test: Transepithelial resistance (TER) of Caco-2 monolayers; format: cell-based, human
Method: (§1) Caco-2 cells were grown close to confluence, and T84 cells were grown to confluence. The apical chambers of transwell plates with 6.5 mm diameter and 3 μm pore size filters were pretreated with 50 μl of 45 μg/ml collagen IV in 60% ethanol 24 hours prior to plating and incubated overnight at room temperature. After reaching confluence, cells were washed with 20 ml PBS and treated with 3.5 ml trypsin-EDTA per 175 cm^2 flask for 20-60 min at 37° C. until cells detached. Cells were resuspended in 16.5 ml media appropriate to the cell type. Each apical chamber was supplemented with 82 μl cell solution. The basolateral chamber was filled with 1 ml propagation media. Filters were fed with new media every two days over the course of experiments.
(§2) Caco-2 and T84 cells were allowed to grow on transwells to form monolayers. Monolayer formation was examined every other day by light microscopy as well as by transepithelial resistance (TER) measurements using an EVOM ohmmeter (World Precision Instruments, Sarasota, Fla.). After monolayer formation, cells were treated with 100 ng/ml FGF1, 100 ng/ml FGF2, 100 ng/ml FGF7 or an equivalent volume (10 μl) of PBS. TER measurements were made either after 72 hours or at each of the 30 minutes, 1 hour, 2 hours, 4 hours, 9 hours, 24 hours and 48 hours timepoints. To determine the effects of multiple additions of ligand, FGFs or PBS were added initially and again after 2 days, and TER measurements were made after 0, 2 and 5 days.
(§3) To probe the mechanism by which various FGFs induced cell mediated effects, various media treatments were employed. Ammonium tetrathiomolybdate (TM) was added 24 hours prior to the addition of ligands to yield a final concentration of 200 μM, sufficient to prevent the release of FGF1 [3]. Similarly, sodium chlorate, which reduces cell HSPGs and the sulfation of associated HSGAGs, was added 24 hours prior to the addition of ligands to yield a final concentration of 50 mM [33,34]. Antibodies and kinase inhibitors were added immediately prior to ligands. Antibodies to FGF1, FGFR1 and FGFR3 were added at a 1:100 dilution. Kinase inhibitors were added to yield final concentrations of 50 μM LY294002, 20 μM PD98059, 1 μM SB203580. All experiments were performed in triplicate.
Caco-2 cells were grown to just prior to confluency. The apical chambers of transwell plates with 6.5 mm diameter and 3 μm pore size filters were pretreated with 50 μl of 45 μg/ml mouse recombinant collagen IV (BD Biosciences, Bedford, Mass.) in 60% ethanol 24 hours prior to plating. Plates were incubated overnight at room temperature. Just prior to confluency, cells were washed with 20 ml phosphate buffered saline (PBS) and treated with 3.5 ml trypsin-EDTA per 175 cm^2 flask for 20-60 min at 37° C., until cells detached. Cells were resuspended in 16.5 ml media appropriate to the cell type. Each apical chamber was supplemented with 82 μl cell solution. The basolateral chamber was filled with 1 ml propagation media. Filters were fed with new media every two days over the course of experiments.
Caco-2 cells were allowed to grow on transwells to form monolayers. Monolayer formation was examined every other day by light microscopy as well as by TER measurements using an EVOM ohmmeter (World Precision Instruments, Sarasota, Fla.). After monolayer formation, cells were treated with 100 ng/ml recombinant human FGF1 (Amgen, Thousand Oaks, Calif.), 100 ng/ml recombinant human FGF2 [1], 100 ng/ml recombinant human FGF7 (Sigma, St. Louis, Mo.), or an equivalent volume (10 μl) of PBS. TER measurements were made after each of 30 minutes, 1 hour, 2 hours, 4 hours, 9 hours, 24 hours and 48 hours.
To probe the mechanism by which various FGFs induced cellular mediated effects, various media treatments were employed. TM was added 24 hours prior to the addition of ligands to yield a final concentration of 200 μM, sufficient to prevent the release of FGF1 [3]. […]

T84 cells [2] = test: Transepithelial resistance (TER) of T84 monolayers; format: cell-based, human; conditions: agent given before or with 100 ng/ml FGFs (TM 200 μM, sodium chlorate 50 mM, LY294002 50 μM, antibodies 1:100)
Method: as §1, §2, §3

FGF1 [3] = test: Immunohistochemistry for FGF1 in Caco-2 cells; format: cell-based, human; conditions: 200 μM TM for 24 hours
Method: (§4) To determine FGFR and FGF1 expression, Caco-2 cells were grown to just prior to confluence, and T84 cells were grown to confluence on collagen-coated glass slides. Cells were washed with PBS supplemented with 5% BSA. To stain for FGFR3, rabbit anti-human FGFR3 antibodies were added to cells at a 1:500 dilution and incubated for 1 hour. Cells were washed with PBS supplemented with 5% BSA, and FITC-conjugated goat anti-rabbit antibodies were added and incubated for 30 minutes. Cells were washed with BSA-PBS and examined using fluorescence microscopy. For FGF1 analysis, cells were treated with 200 μM TM or 10 μl PBS for 24 hours, formalin fixed, treated with goat anti-human FGF1 antibodies at a 1:200 dilution and incubated for 4 hours. Cells were washed with PBS supplemented with 5% BSA, and Texas red-conjugated donkey anti-goat antibodies were added and incubated for 1 hour. Cells were washed with BSA-PBS and examined using fluorescence microscopy.

Caco-2 cells [4] = test: Caco-2 proliferation assay (whole cell number); format: cell-based, human; conditions: TM 200 μM, FGF1 added to TM treated cells
Method: (§5) Caco-2 cells were grown to just prior to confluence, and T84 cells were grown to confluence. Each flask was washed with 20 ml PBS and treated with 3 ml trypsin-EDTA at 37° C. for 20-60 minutes until cells detached. Cells were centrifuged for 3 minutes at 195×g. The supernatant was aspirated, and the cells were resuspended in 10 ml media. The cell density was measured using an electronic cell counter, and the suspension was diluted to 50,000 cells/ml. The suspension was plated at 1 ml/well into 12-well tissue culture plates. After a 24 hour incubation in a 5% CO2, 37° C. humidified incubator, the media was aspirated, the wells were washed with serum free media, and the cells were supplemented with media containing 0.1% FBS. The wells were then supplemented with 10 μl PBS, 50 mM sodium chlorate, or 200 μM TM, and incubated for 24 hours. Subsequently, cells were supplemented with 100 ng/ml FGF1, FGF2, FGF7, or 10 μl PBS, and incubated for 72 hours. Wells were then washed twice with PBS and treated with 0.5 ml trypsin-EDTA/well and incubated at 37° C. until cells detached. Whole cell number was determined using an electronic cell counter. Data was averaged over three experiments, each consisting of four wells per condition.

T84 cells [5] = test: T84 proliferation assay (whole cell number); format: cell-based, human; conditions: TM 200 μM, FGF1 added to TM treated cells
Method: as §5

FGF1 [6] = test: Immunohistochemistry for FGF1 in T84 cells; format: cell-based, human; conditions: 200 μM TM for 24 hours
Method: as §4

[7] = molecular target: FGFR3b expressed by Caco-2 and T84 cells (human) (UniProt P22607); test: cell-based or functional assay
Chain of UniProt P22607 (P22607 23-806): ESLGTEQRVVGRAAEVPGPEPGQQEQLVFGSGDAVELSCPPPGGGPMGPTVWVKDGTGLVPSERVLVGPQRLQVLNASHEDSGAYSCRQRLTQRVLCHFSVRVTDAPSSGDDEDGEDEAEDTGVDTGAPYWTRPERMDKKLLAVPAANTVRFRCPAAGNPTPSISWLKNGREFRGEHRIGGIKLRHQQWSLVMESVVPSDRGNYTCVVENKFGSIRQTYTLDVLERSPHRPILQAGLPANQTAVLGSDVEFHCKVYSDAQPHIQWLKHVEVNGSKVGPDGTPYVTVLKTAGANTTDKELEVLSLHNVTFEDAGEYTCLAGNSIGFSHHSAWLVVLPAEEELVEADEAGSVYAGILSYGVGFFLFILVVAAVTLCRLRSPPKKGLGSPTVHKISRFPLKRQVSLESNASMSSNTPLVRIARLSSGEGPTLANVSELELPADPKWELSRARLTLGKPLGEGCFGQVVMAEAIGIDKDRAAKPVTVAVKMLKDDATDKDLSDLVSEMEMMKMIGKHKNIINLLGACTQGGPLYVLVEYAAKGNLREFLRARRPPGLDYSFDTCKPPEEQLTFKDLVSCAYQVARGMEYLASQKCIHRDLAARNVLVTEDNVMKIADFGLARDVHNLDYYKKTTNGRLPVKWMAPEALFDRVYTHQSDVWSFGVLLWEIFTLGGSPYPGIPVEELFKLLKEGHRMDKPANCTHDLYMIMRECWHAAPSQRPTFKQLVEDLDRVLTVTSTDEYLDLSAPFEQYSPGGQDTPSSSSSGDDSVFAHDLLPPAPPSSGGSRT

[8] = cell line not stated (Caco-2 and T84 cells studied), PD98059 20 μM, SB203580 1 μM, LY294002 50 μM, antibodies 1:100
[9] = Caco-2 cells, agent given before or with 100 ng/ml FGFs (TM 200 μM, sodium chlorate 50 mM, LY294002 50 μM, PMA 100 ng/ml, antibodies 1:100)

## C[S+]([O-])c1ccc(-c2nc(-c3ccncc3)c(-c3ccc(F)cc3)[nH]2)cc1 (stereo not shown) [SB203580, reference compound]
Caco-2 cells [1]; [8]
  effect of added agent on FGF-induced reduction in TER: failed to eliminate the ligand mediated inhibition of TER

## COc1cccc(-c2cc(=O)c3ccccc3o2)c1N [PD98059, reference compound]
Caco-2 cells [1]; [8]
  effect of added agent on FGF-induced reduction in TER: failed to eliminate the ligand mediated inhibition of TER

## [Na+].[O-][Cl+2]([O-])[O-] [Sodium chlorate, sodium chlorate, reference compound]
Caco-2 cells [1]; [9]
  effect of added agent on FGF-induced reduction in TER: eliminated the ability; also recorded: abrogated the ability
T84 cells [2]
  effect of added agent on FGF-induced reduction in TER: eliminated the ability

## CCCCCCCCCCCCCC(=O)O[C@@H]1[C@@H](C)[C@@]2(O)[C@@H](C=C(CO)C[C@]3(O)C(=O)C(C)=C[C@@H]23)[C@@H]2C(C)(C)[C@]12OC(C)=O [PMA, phorbol 12-myristate 13-acetate, reference compound]
Caco-2 cells [1]; [9]
  effect of added agent on FGF-induced reduction in TER: prevented FGF2 and FGF7 activity, but not that of FGF1

## Boiled FGF1: FGF1 that was boiled, used as control in the TER test
Caco-2 cells [1]; cell line not stated (Caco-2 and T84 cells studied)
  reduction of TER (in words): did not reduce TER

## [NH4+].[NH4+].[SH-].[SH-].[S]=[Mo]=[S] [TM, Ammonium tetrathiomolybdate, reference compound]
FGF1 [3]
  distribution of FGF1: retaining FGF1 closer to the nucleus
Caco-2 cells [1]; [9]
  effect of added agent on FGF-induced reduction in TER: abrogated the reduction in TER induced by FGF2
T84 cells [2]
  effect of added agent on FGF-induced reduction in TER: prevented
Caco-2 cells [4]
  effect of added agent on proliferative effect of FGF2 and FGF7: eliminated the proliferative effect of FGF2 and FGF7
T84 cells [5]
  effect of added agent on proliferative effect of FGF2 and FGF7: eliminated the proliferative effect of FGF2 and FGF7
FGF1 [6]
  distribution of FGF1: retaining FGF1 closer to the nucleus

## Recombinant human FGF1 (from UniProt P05230 16-155) (ligand)
[7]
  inhibition of increases in TER over three days, Caco-2 cells: 35.1%
  inhibition of increases in TER over three days, T84 cells: 30.1%
  reduction of TER at 48 hours, Caco-2 cells: 45.1%
  reduction of TER at 48 hours, T84 cells: 22.7%
